Literature values as cited in article PMC8717895 (Neuro-oncology Advances, 2021).

Experiments:
PDGF β receptor = conditions: cited from earlier work
[1] = cited from earlier work

CC1(COc2ccc3c(c2)ncn3-c2ccc3cccc(N4CCC(N)CC4)c3n2)COC1 [crenolanib]
50% inhibitory concentration (PDGF β receptor): ~0.4 ng/mL
IC50 (PDGF β receptor; read-out: 50% inhibitory concentration): ~0.902 nM
incidence of significant elevations of liver enzymes ([1]; adults with advanced solid tumors): < 5%
Maximum tolerated dose (MTD) ([1]; adults, uncoated tablets with food): not reached
